BigSolDB 2.1

O=S(=O)(c1ccc(O)cc1)c1ccccc1O
solubility (mole fraction)
Conditions	in 1,4-dioxane	in 2-butanone	in acetone	in acetonitrile	in ethanol	in ethyl acetate	in isopropanol	in methanol	in n-butanol
278.15 K	0.0184	0.101	0.106	0.00974	0.0655	0.0386	0.0656	0.0569	0.0571
280.65 K	0.0213	0.103	0.108	0.0109	0.0672	0.0402	0.068	0.0583	0.0584
283.15 K	0.0242	0.105	0.11	0.0121	0.0689	0.0415	0.0708	0.0597	0.0597
285.65 K	0.0272	0.107	0.112	0.0132	0.0706	0.0432	0.074	0.0612	0.0609
288.15 K	0.0303	0.109	0.115	0.0144	0.0725	0.0449	0.0767	0.0627	0.0621
290.65 K	0.0338	0.111	0.117	0.0156	0.0746	0.0465	0.0798	0.0643	0.0634
293.15 K	0.0376	0.113	0.12	0.0169	0.0766	0.0482	0.0825	0.0661	0.0645
295.65 K	0.0415	0.115	0.124	0.0179	0.0785	0.0501	0.0857	0.0677	0.0658
298.15 K	0.0465	0.118	0.127	0.0192	0.0805	0.052	0.089	0.0696	0.0671
300.65 K	0.0514	0.12	0.13	0.0204	0.0827	0.054	0.0925	0.0716	0.0682
303.15 K	0.0557	0.122	0.133	0.0219	0.085	0.0562	0.0963	0.0739	0.0694
305.65 K	0.0611	0.125	0.136	0.0236	0.0872	0.0585	0.1	0.0763	0.0707
308.15 K	0.0664	0.127	0.139	0.0252	0.0898	0.0609	0.104	0.0786	0.0719
310.65 K	0.0713	0.13	0.142	0.0271	0.0928	0.0637	0.109	0.0809	0.0734
313.15 K	0.077	0.134	0.146	0.0295	0.0957	0.0669	0.113	0.0838	0.0751
